Values of other authors in patent US20240398797A1, “COMBINATION THERAPIES FOR METASTATIC CASTRATION-RESISTANT PROSTATE CANCER” (Janssen Pharmaceutica NV, priority 2021, published 2024).

Columns and labels:
T877A AR mutant = biological target: T1, T877A AR mutant (Homo sapiens, UniProt P10275, T878A)
T1 sequence (P10275 1-920 T878A): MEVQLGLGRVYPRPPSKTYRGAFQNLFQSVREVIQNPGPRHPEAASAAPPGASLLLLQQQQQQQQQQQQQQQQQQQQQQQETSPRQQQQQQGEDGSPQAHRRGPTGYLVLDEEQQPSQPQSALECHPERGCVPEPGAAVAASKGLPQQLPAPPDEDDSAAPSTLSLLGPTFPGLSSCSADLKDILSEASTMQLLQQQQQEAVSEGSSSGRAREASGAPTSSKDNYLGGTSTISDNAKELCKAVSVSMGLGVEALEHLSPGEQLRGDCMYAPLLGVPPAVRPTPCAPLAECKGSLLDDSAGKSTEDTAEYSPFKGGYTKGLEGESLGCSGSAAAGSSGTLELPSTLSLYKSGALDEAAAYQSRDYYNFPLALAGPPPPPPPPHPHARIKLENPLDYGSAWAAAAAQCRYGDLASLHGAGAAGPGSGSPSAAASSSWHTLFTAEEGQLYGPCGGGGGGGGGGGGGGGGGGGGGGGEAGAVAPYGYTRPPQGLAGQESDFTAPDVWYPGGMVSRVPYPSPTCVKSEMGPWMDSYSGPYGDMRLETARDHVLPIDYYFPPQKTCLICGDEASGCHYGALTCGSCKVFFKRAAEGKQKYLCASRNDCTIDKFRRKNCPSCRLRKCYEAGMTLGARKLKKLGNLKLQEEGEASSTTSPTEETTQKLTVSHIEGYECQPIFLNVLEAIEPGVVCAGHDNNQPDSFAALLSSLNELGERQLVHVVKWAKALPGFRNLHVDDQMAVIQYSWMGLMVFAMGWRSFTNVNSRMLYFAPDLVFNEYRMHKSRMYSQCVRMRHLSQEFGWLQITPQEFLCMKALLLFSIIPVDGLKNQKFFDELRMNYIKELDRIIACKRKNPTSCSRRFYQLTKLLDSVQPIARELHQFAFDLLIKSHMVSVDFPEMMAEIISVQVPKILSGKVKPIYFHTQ

[1] = system: non-castrate hormone-sensitive and bicalutamide-resistant human prostate cancer xenograft models

SMILES	activity at AR mutant (T877A AR mutant)	tumor regression [1]
CC(C)(O)C(=O)Nc1ccc([N+](=O)[O-])c(C(F)(F)F)c1 [hydroxyflutamide]	act as AR agonists	
CNC(=O)c1ccc(N2C(=S)N(c3cnc(C#N)c(C(F)(F)F)c3)C(=O)C23CCC3)cc1F [Apalutamide, 4-[7-(6-cyano-5-trifluoromethylpyridin-3-yl)-8-oxo-6-thioxo-5,7-diazaspiro [3.4]oct-5-yl]-2-fluoro-N-methylbenzamide]		partial or complete tumor regression
